Like-named read-outs stand apart in the source and are kept apart here.
How the values were obtained:
Jurkat T cells = assay: Antiproliferative screening at 10 μM, MTS assay; type: cell-based, human; conditions: Homo sapiens, read-out: Cell viability (%)
Procedure: The Jurkat T cell line was chosen for its reliability as a model for chemotherapeutic studies, particularly in T-cell leukemia.[13]
An MTS (3-(4,5-dimethylthiazol-2-yl)-5-(3-carboxymethoxyphenyl)-2-(4-sulfophenyl)-2H-tetrazolium inner salt) assay[20] was used to assess the leukemic cell viability. […] A total of 2 × 10^3 cells per 100 μL cell culture media were seeded into each well of a 96-well plate and incubated for 24 h. Then, tested compounds or reference drugs [6-mercaptopurine (Merck Millipore, Germany), methotrexate (Merck Millipore, Germany) and cytarabine (Merck Millipore, Germany)] were added, followed by incubation for 72 h. […] The absorbance in each well was measured at 490 nm using a microplate reader (Tecan NanoQuant Infinite M200 Pro, Austria). The percentage of cell viability was estimated by comparing absorbance in wells with the treated and untreated (vehicle control) cells using the following formula: ODtreated/ODuntreated × 100%. All experiments were performed in triplicate and repeated in three independent experiments. The GI50 values were calculated using sigmoidal concentration-response curves generated by the GraphPad Prism 8 program.[21]

[1] = Jurkat T cells, 10 μM, 72 h after treatment, MTS, mean of three independent experiments

Row | Structure (SMILES) | melting point | viability at 10 µM (Jurkat T cells; [1]) | viability at 10 µM (Jurkat T cells; Jurkat, 72 h)
1 | Nc1nc(-c2ccccc2)nc(N2CCCC2)n1 [9{1,1}] |  | 100% | 
2 | CN1CCN(c2nc(N)nc(-c3cccc([N+](=O)[O-])c3)n2)CC1 [9{4,10}, 4-(4-Methylpiperazino)-6-(3-nitrophenyl)-1,3,5-triazine-2-amine] | 226 to 227 °C | 100% | 
3 | COc1ccc(-c2nc(N)nc(N3CCCC3)n2)cc1 [9{1,9}, 6-(4-Methoxyphenyl)-4-pyrrolidino-1,3,5-triazine-2-amine] | 208 to 209 °C | 100% | 
4 | COc1ccc(-c2nc(N)nc(N3CCOCC3)n2)cc1 [9{5,9}] |  | 100% | 
5 | Nc1nc(-c2ccc(OCc3ccccc3)cc2)nc(N2CCOCC2)n1 [9{5,15}] |  | 94% | 
6 | COc1ccc(-c2nc(N)nc(N3CCCCC3)n2)cc1 [9{2,9}, 6-(4-Methoxyphenyl)-4-piperidino-1,3,5-triazine-2-amine] | 178 to 179 °C | 100% | 
7 | Nc1nc(-c2ccc(Cl)cc2)nc(N2CCOCC2)n1 [9{5,4}] |  | 100% | 
8 | CN1CCN(c2nc(N)nc(-c3ccc(OCc4ccccc4)cc3)n2)CC1 [9{4,15}, 6-[4-(Benzyloxy)phenyl]-4-(4-methylpiperazino)-1,3,5-triazine-2-amine] | 191 to 192 °C | 74% | 
9 | CC(C)(C)c1ccc(-c2nc(N)nc(N3CCOCC3)n2)cc1 [9{5,7}] |  | 60% | 
10 | Nc1nc(-c2ccc(F)cc2)nc(N2CCCCC2)n1 [9{2,3}, 6-(4-Fluorophenyl)-4-piperidino-1,3,5-triazine-2-amine] | 156 to 157 °C | 98% | 
11 | CN1CCN(c2nc(N)nc(-c3ccc(Cl)cc3)n2)CC1 [9{4,4}, 6-(4-Chlorophenyl)-4-(4-methylpiperazino)-1,3,5-triazine-2-amine] |  |  | 100%
12 | Nc1nc(-c2ccc(F)cc2)nc(N2CCOCC2)n1 [9{5,3}] |  | 100% | 
13 | COc1ccc(-c2nc(N)nc(N3CCOCC3)n2)cc1OC [9{5,16}] |  | 100% | 
14 | Nc1nc(-c2cccc(F)c2)nc(N2CCOCC2)n1 [9{5,2}] |  | 100% | 
15 | Nc1nc(-c2ccccc2)nc(N2CCCCC2)n1 [9{2,1}] |  | 100% | 
16 | Nc1nc(-c2ccc(C(F)(F)F)cc2)nc(N2CCCC2)n1 [9{1,11}, 6-[4-(Trifluoromethyl)phenyl]-4-pyrrolidino-1,3,5-triazine-2-amine] | 186 to 187 °C | 78% | 

Row | Structure (SMILES) | melting point | viability at 10 µM (Jurkat T cells; [1]) | viability at 10 µM (Jurkat T cells; Jurkat, 72 h)
17 | Nc1nc(-c2cccc(OCc3ccccc3)c2)nc(N2CCOCC2)n1 [9{5,14}] |  | 63% | 
18 | CN1CCN(c2nc(N)nc(-c3ccc(C(F)(F)F)cc3)n2)CC1 [9{4,11}, 6-[4-(Trifluoromethyl)phenyl]-4-(4-methylpiperazino)-1,3,5-triazine-2-amine] | 194 to 195 °C | 100% | 
19 | Nc1nc(-c2cccc(Oc3ccccc3)c2)nc(N2CCOCC2)n1 [9{5,13}] |  | 78% | 
20 | COc1cc(-c2nc(N)nc(N3CCOCC3)n2)cc(OC)c1OC [9{5,17}] |  | 100% | 
21 | Nc1nc(-c2ccccc2)nc(N2CCOCC2)n1 [9{5,1}] |  | 98% | 
22 | CN1CCN(c2nc(N)nc(-c3ccc(N(C)C)cc3)n2)CC1 [9{4,8}, 6-[4-(N,N-Dimethylamino)phenyl]-4-(4-methylpiperazino)-1,3,5-triazine-2-amine] | 244 to 245 °C | 99% | 
23 | Nc1nc(-c2ccc(OC(F)(F)F)cc2)nc(N2CCOCC2)n1 [9{5,12}] |  | 100% | 
24 | CN1CCN(c2nc(N)nc(-c3cccc(F)c3)n2)CC1 [9{4,2}, 6-(3-Fluorophenyl)-4-(4-methylpiperazino)-1,3,5-triazine-2-amine] | 187 to 188 °C | 95% | 
25 | Cc1ccc(-c2nc(N)nc(N3CCCCC3)n2)cc1 [9{2,6}, 6-(4-Methylphenyl)-4-piperidino-1,3,5-triazine-2-amine] |  | 100% | 
26 | Cc1cccc(-c2nc(N)nc(N3CCOCC3)n2)c1 [9{5,5}] |  | 100% | 
27 | Nc1nc(-c2cccs2)nc(N2CCOCC2)n1 [9{5,18}] |  | 77% | 
28 | CN1CCN(c2nc(N)nc(-c3ccccc3)n2)CC1 [9{4,1}] |  | 100% | 
29 | Cc1ccc(-c2nc(N)nc(N3CCOCC3)n2)cc1 [9{5,6}] |  | 100% | 
30 | CC1CCN(c2nc(N)nc(-c3ccccc3)n2)CC1 [9{3,1}] |  | 100% | 
31 | COc1cc(-c2nc(N)nc(N3CCC(C)CC3)n2)cc(OC)c1OC [9{3,17}, 6-(3,4,5-Trimethoxyphenyl)-4-(4-methylpiperidino)-1,3,5-triazine-2-amine] |  | 95% | 
32 | CN(C)c1ccc(-c2nc(N)nc(N3CCOCC3)n2)cc1 [9{5,8}] |  | 100% | 

Now from value to compound, other results behind:

Row | melting point | Structure (SMILES) | viability at 10 µM (Jurkat T cells; [1]) | viability at 10 µM (Jurkat T cells; Jurkat, 72 h)
33 | 210 to 211 °C | Nc1nc(-c2cccs2)nc(N2CCCC2)n1 [9{1,18}, 4-Pyrrolidino-6-(2-thienyl)-1,3,5-triazine-2-amine] | 100% | 
34 | 220 to 221 °C | Cc1ccc(-c2nc(N)nc(N3CCN(C)CC3)n2)cc1 [9{4,6}, 6-(4-Methylphenyl)-4-(4-methylpiperazino)-1,3,5-triazine-2-amine] | 100% | 
35 | 234 to 235 °C | COc1cc(-c2nc(N)nc(N3CCN(C)CC3)n2)cc(OC)c1OC [9{4,17}, 6-(3,4,5-Trimethoxyphenyl)-4-(4-methylpiperazino)-1,3,5-triazine-2-amine] | 100% | 
36 | 196 to 197 °C | COc1ccc(-c2nc(N)nc(N3CCN(C)CC3)n2)cc1 [9{4,9}, 6-(4-Methoxyphenyl)-4-(4-methylpiperazino)-1,3,5-triazine-2-amine] | 100% | 
37 | 172 to 173 °C | COc1ccc(-c2nc(N)nc(N3CCC(C)CC3)n2)cc1 [9{3,9}, 6-(4-Methoxyphenyl)-4-(4-methylpiperidino)-1,3,5-triazine-2-amine] | 100% | 
38 | 194 to 195 °C | Cc1cccc(-c2nc(N)nc(N3CCN(C)CC3)n2)c1 [9{4,5}, 6-(3-Methylphenyl)-4-(4-methylpiperazino)-1,3,5-triazine-2-amine] | 95% | 
39 | 158 to 159 °C | Nc1nc(-c2cccc([N+](=O)[O-])c2)nc(N2CCCCC2)n1 [9{2,10}, 6-(3-Nitrophenyl)-4-piperidino-1,3,5-triazine-2-amine] | 100% | 
40 | 153 to 154 °C | CC1CCN(c2nc(N)nc(-c3cccc([N+](=O)[O-])c3)n2)CC1 [9{3,10}, 4-(4-Methylpiperidino)-6-(3-nitrophenyl)-1,3,5-triazine-2-amine] | 84% | 
41 | 182 to 183 °C | Nc1nc(-c2cccc(F)c2)nc(N2CCCC2)n1 [9{1,2}, 6-(3-Fluorophenyl)-4-pyrrolidino-1,3,5-triazine-2-amine] | 100% | 
42 | 217 to 218 °C | COc1ccc(-c2nc(N)nc(N3CCCC3)n2)cc1OC [9{1,16}, 6-(3,4-Dimethoxyphenyl)-4-pyrrolidino-1,3,5-triazine-2-amine] | 95% | 
43 | 212 to 213 °C | CC1CCN(c2nc(N)nc(-c3ccc(N(C)C)cc3)n2)CC1 [9{3,8}, 6-[4-(N,N-Dimethylamino)phenyl]-4-(4-methylpiperidino)-1,3,5-triazine-2-amine] | 84% | 
44 | 207 to 208 °C | Nc1nc(-c2cccc([N+](=O)[O-])c2)nc(N2CCCC2)n1 [9{1,10}, 6-(3-Nitrophenyl)-4-pyrrolidino-1,3,5-triazine-2-amine] | 94% | 
45 | 227 to 228 °C | Nc1nc(-c2ccc(C(F)(F)F)cc2)nc(N2CCc3ccccc32)n1 [9{7,11}, 6-[4-(Trifluoromethyl)phenyl]-4-(indolin-1-yl)-1,3,5-triazine-2-amine] | 53% | 
46 | 201 to 202 °C | CN(C)c1ccc(-c2nc(N)nc(N3CCc4ccccc4C3)n2)cc1 [9{6,8}, 6-[4-(N,N-Dimethylamino)phenyl]-4-(3,4-dihydroisoquinolin-2(1H)-yl)-1,3,5-triazine-2-amine] | 100% | 
47 | 202 to 203 °C | Nc1nc(-c2ccc(F)cc2)nc(N2CCCC2)n1 [9{1,3}, 6-(4-Fluorophenyl)-4-pyrrolidino-1,3,5-triazine-2-amine] | 97% | 
48 | 143 to 144 °C | Nc1nc(-c2ccc(OCc3ccccc3)cc2)nc(N2CCc3ccccc3C2)n1 [9{6,15}, 6-(4-(Benzyloxy)phenyl)-4-(3,4-dihydroisoquinolin-2(1H)-yl)-1,3,5-triazine-2-amine] | 59% | 
49 | 183 to 184 °C | COc1ccc(-c2nc(N)nc(N3CCc4ccccc43)n2)cc1OC [9{7,16}, 6-(3,4-Dimethoxyphenyl)-4-(indolin-1-yl)-1,3,5-triazine-2-amine] | 67% | 
50 | 177 to 178 °C | Nc1nc(-c2ccc(Cl)cc2)nc(N2CCCCC2)n1 [9{2,4}, 6-(4-Chlorophenyl)-4-piperidino-1,3,5-triazine-2-amine] | 83% | 
51 | 192 to 193 °C | CN1CCN(c2nc(N)nc(-c3ccc(F)cc3)n2)CC1 [9{4,3}, 6-(4-Fluorophenyl)-4-(4-methylpiperazino)-1,3,5-triazine-2-amine] | 100% | 
